Laboratory results reported in patent US12048766B2, “Gamma polyglutamated tetrahydrofolates and uses thereof” (L.E.A.F. HOLDINGS GROUP LLC, priority 2018, dated 2024).

Tests used:
[1] = tested on: HT-29 (colon cancer); experiment: CellTiter-Glo luminescent cell viability assay, HT-29; assay type: cell-based, human; settings: 48 hours, FIG. 3
Description: Luciferase luminescence were recorded for each well.

[2] = tested on: AML12 liver cells; experiment: Toxicity on AML12 liver cells; assay type: cell-based; settings: all doses studied (16 to 128 nM); 48 hours; FIG. 14
Source text: (§1) Methodologies used for cell line AML12 (non-cancerous liver cells) and CCD841 (non-cancerous colon epithelial cells) are similar to the methods used for cancer cells.

[3] = tested on: CCD841 colon epithelium cells; experiment: Toxicity on CCD841 colon epithelium cells; assay type: cell-based; settings: all concentrations tested (16 to 128 nM); 48 hours; FIG. 15
Source text: as §1

Nc1nc(=O)c2c(CCc3ccc(C(=O)N[C@@H](CCC(=O)N[C@@H](CCC(=O)N[C@@H](CCC(=O)N[C@@H](CCC(=O)N[C@@H](CCC(=O)N[C@@H](CCC(=O)O)C(=O)O)C(=O)O)C(=O)O)C(=O)O)C(=O)O)C(=O)O)cc3)c[nH]c2[nH]1 [gG6, pemetrexed L-gamma hexaglutamate]
potency rank among test articles [1]: least potent

Nc1nc2[nH]cc(CCc3ccc(C(=O)N[C@@H](CCC(=O)O)C(=O)O)cc3)c2c(=O)[nH]1 [pemetrexed]
reduction in AML12 liver cell counts [2]: approximately 40%
decrease in the number of CCD841 colon epithelium cells [3]: ≥ 50%
